Test results from US20110288154A1, “RNA Interference Mediated Inhibition of Epithelial Sodium Channel (ENaC) Gene Expression Using Short Interfering Nucleic Acid (siNA)” (MERCK & CO., INC., priority 2008, published 2011).
[invAb] = inverted abasic unit; d = 2'-deoxy (DNA); m = 2'-O-methyl; r = 2'-OH (RNA); f = 2'-fluoro

Test system: ENaCα mRNA
Assay: Screening of ENaCα siNAs in human A549 cells (quantitative RT-PCR)
Type: cell-based
Set-up: Percent Reduction of the ENaCα mRNA relative to a non-targeting control siNA (NTC): concentration or dose not given beside the values
Conditions: for Avg ENaCα Expression / Mean (level of ENaCα expression normalized to the level of GAPDH) / Percent Reduction of the ENaCα mRNA relative to a non-targeting control siNA (NTC) / Avg GAPDH Expression: human A549 cells, n = 3; for Avg ENaCα Expression: 25 nM siNA with Lipofectamine 2000, harvested 24 hours post-transfection; for Mean (level of ENaCα expression normalized to the level of GAPDH) / Percent Reduction of the ENaCα mRNA relative to a non-targeting control siNA (NTC) / Avg GAPDH Expression: 24 hours post-transfection; for Avg GAPDH Expression: housekeeping gene used for normalisation
Experimental: siNA constructs (Table 1b) may be tested for efficacy in reducing ENaC RNA expression in, for example, A549 human lung carcinoma cells. A549 (human; ATCC cat# CCL-185) cells were cultured at 37° C. in the presence of 5% CO2 and grown in Ham's F12K medium with 2 mM L-glutamine adjusted to contain 1.5 g/L sodium bicarbonate and supplemented with fetal bovine serum at a final concentration of 10% and 100 U/mL penicillin. The A549 cells were plated approximately 24 hours before transfection in 96-well plates at 7,500 cells/well, 100 μl/well. After 24 hours complexes containing siNA and Lipofectamine 2000 (Invitrogen) were created as follows: a solution of Lipofectamine 2000 in OPTI-MEM was prepared containing Lipofectamine 2000 at a final concentration of 14 μg/ml. In parallel, solutions of the siNAs were prepared in OPTI-MEM at a final concentration of 150 nM. After both solutions were incubated at 20° C. for 20 minutes an equal volume of the siNA solutions and the Lipofectamine 2000 solution were added together for each of the siNAs. The resultant solution has the siNAs at a final concentration of 75 nM and Lipofectamine 2000 at a final concentration of 7 μg/ml. This solution was incubated at 20° C. for 20 minutes. After incubation 50 μl of the solution were added to each of the wells (in triplicate). The final concentration of siNA in each well was 25 nM and the final concentration of Lipofectamine 2000 in each well was 2.33 μg/ml. […] Dose response curves were determined in a similar manner with each concentration being done in triplicate and maintaining a constant amount of Lipofectamine 2000 in each transfection.
RNA was extracted from 96-well plates using the Invitek Invisorb RNA Cell HTS 96 Kit/C (Cat# 70619000) with a slightly modified protocol. The details of the protocol for isolating RNA from each plate are described as follows:
1) Aspirate media with rake 2) Add 150 ul/well Lysis buffer 3) Place on plate shaker for 1 minute 4) Place DNA binding plate on top of 0.5 ml collection plate 5) Pipette 190 ul up and down twice and add to DNA binding plate 6) Cover plate 7) Centrifuge plates 4 minutes at 4000 RPM 8) Discard DNA binding plate 9) Place the RNA binding plate on top of 2 ml collection plate 10) Add 150 ul/well of Binding Buffer R to 0.5 ml collection plate 11) Move contents of 0.5 ml collection plate to RNA binding plate 12) Let incubate for 1 minute 13) Centrifuge plates 4 minutes at 4000 RPM 14) Add 600 ul/well of Wash Buffer R1 to RNA binding plate 15) Centrifuge plates 4 minutes at 4000 RPM 16) Dump wash buffer from 2 ml collection plate 17) Add 400 ul/well of Wash Buffer R2 to RNA binding plate 18) Centrifuge plates 4 minutes at 4000 RPM 19) Add 400 ul/well of Wash Buffer R2 to RNA binding plate 20) Centrifuge plates 10 minutes at 4000 RPM 21) Dump wash buffer from 2 ml collection plate 22) Centrifuge plates 3 minutes at 4000 RPM 23) Discard 2 ml collection plate and place RNA binding plate on to microtiter plate 24) Add 100 ul/well of elution buffer to RNA binding plate 25) Incubate for 2 minutes 26) Seal plate 27) Centrifuge plates 3 minutes at 4000 RPM 28) Discard RNA binding plate 29) Cover microtiter plate for storage in −80 freezer
A series of probes and primers were used to detect the various mRNA transcripts of the genes of ENaCa and GAPDH in mouse, rat, and human cell lines. The assays were performed on an ABI 7500 instrument, according to the manufacturer's instructions. Within each experiment, the baseline was set in the exponential phase of the amplification curve, and based on the intersection point of the baselines with the amplification curve, a Ct value was assigned by the instrument. This Ct value was then assigned a QTY value based on the Standard Curve. The standard curve in the various experiments herein used 1 ng to 300 ng of RNA extracted from the same cell line used for the experimental transfections. […]

| Substance | Avg ENaCα Expression | Mean (level of ENaCα expression normalized to the level of GAPDH) | Percent Reduction of the ENaCα mRNA relative to a non-targeting control siNA (NTC) [%] | Avg GAPDH Expression | IC50 (human cell line, dose response, read-out: Human IC50 (potency of ENaCα mRNA knockdown)) [nM] | Human % KD (efficacy of ENaCα mRNA knockdown) (human cell line, summary) |
| --- | --- | --- | --- | --- | --- | --- |
| B cuccuGuccAAccuGGGcA TTB / UGCccAGGuuGGAcAGGAGUU (sense CUCCUGUCCAACCUGGGCATT; antisense UGCCCAGGUUGGACAGGAGUU; siRNA; sense: DNA at AGT, 2'-fluoro at CU, [invAb] at 5' end, 3' end, backbone not given here; antisense: sugars from the 5' end rrrffmmmffmmmfmmmmmmm, backbone not given here) [Site 1738] | 77.23 | 0.71 | −7.4 | 108.96 |  |  |
| B GuccAAccuGGGcAGccAG TTB / CUGGcuGcccAGGuuGGAcUU (sense GUCCAACCUGGGCAGCCAGTT; antisense CUGGCUGCCCAGGUUGGACUU; siRNA; sense: DNA at AGT, 2'-fluoro at CU, [invAb] at 5' end, 3' end, backbone not given here; antisense: sugars from the 5' end rmmmffmfffmmmffmmmfmm, backbone not given here) [Site 1743] | 68.82 | 0.57 | 13.9 | 121.24 |  |  |
| B AAccuGGGcAGccAGuGGA TTB / UCCAcuGGcuGcccAGGuuUU (sense AACCUGGGCAGCCAGUGGATT; antisense UCCACUGGCUGCCCAGGUUUU; siRNA; sense: sugars from the 5' end ddfffdddfddffddfddrdd, [invAb] at 5' end, 3' end, backbone not given here; antisense: sugars from the 5' end rrrmffmmffmfffmmmffmm, backbone not given here) [Site 1747] | 75.36 | 0.58 | 12.3 | 130.33 |  |  |
| B cccuGcuGuccAcAGuGAc TTB / GUCAcuGuGGAcAGcAGGGUU (sense CCCUGCUGUCCACAGUGACTT; antisense GUCACUGUGGACAGCAGGGUU; siRNA; sense: DNA at AGT, 2'-fluoro at CU, [invAb] at 5' end, 3' end, backbone not given here; antisense: sugars from the 5' end rrrmffmfmmmfmmfmmmmmm, backbone not given here) [Site 1121] | 72.95 | 1.65 | −6.0 | 46.89 |  |  |
| B GGGcAGccAGuGGAGccuG TTB / CAGGcuccAcuGGcuGcccUU (sense GGGCAGCCAGUGGAGCCUGTT; antisense CAGGCUCCACUGGCUGCCCUU; siRNA; sense: DNA at AGT, 2'-fluoro at CU, [invAb] at 5' end, 3' end, backbone not given here; antisense: sugars from the 5' end rrrmffffmffmmffmfffmm, backbone not given here) [Site 1752] | 82.06 | 0.60 | 9.4 | 137.51 |  |  |
| B ccAuccGccuGGuGuGcuc TTB / GAGcAcAccAGGcGGAuGGUU (chain 1 CCAUCCGCCUGGUGUGCUCTT; chain 2 GAGCACACCAGGCGGAUGGUU; siRNA; chain 1: DNA at AGT, 2'-fluoro at CU, [invAb] at 5' end, 3' end, backbone not given here; chain 2: sugars from the 5' end rrrfmfmffmmmfmmmfmmmm, backbone not given here) [Site 311] | 65.43 | 1.29 | 17.0 | 53.29 |  |  |
| B AGuGuGGcuGuGccuAcAu TTB / AUGuAGGcAcAGccAcAcuUU (sense AGUGUGGCUGUGCCUACAUTT; antisense AUGUAGGCACAGCCACACUUU; siRNA; sense: DNA at AGT, 2'-fluoro at CU, [invAb] at 5' end, 3' end, backbone not given here; antisense: sugars from the 5' end rrrfmmmfmfmmffmfmffmm, backbone not given here) [Site 1382] | 72.49 | 1.30 | 16.6 | 57.29 |  |  |
| B GuGuGGcuGuGccuAcAuc TTB / GAUGuAGGcAcAGccAcAcUU (sense GUGUGGCUGUGCCUACAUCTT; antisense GAUGUAGGCACAGCCACACUU; siRNA; B caps on sense ends, letter-case modifications not given here, further chemistry not given here) [Site 1383] | 40.44 | 0.78 | 49.8 | 52.36 | 0.41 | 50-70% |
| B uGGcuGuGccuAcAucuuc TTB / GAAGAuGuAGGcAcAGccAUU (sense UGGCUGUGCCUACAUCUUCTT; antisense GAAGAUGUAGGCACAGCCAUU; siRNA; sense: DNA at AGT, 2'-fluoro at CU, [invAb] at 5' end, 3' end, backbone not given here; antisense: sugars from the 5' end rrrmmfmfmmmfmfmmffmmm, backbone not given here) [Site 1386] | 72.05 | 0.64 | 2.8 | 112.63 |  |  |
| B uGuGGcuGuGccuAcAucu TTB / AGAuGuAGGcAcAGccAcAUU (sense UGUGGCUGUGCCUACAUCUTT; antisense AGAUGUAGGCACAGCCACAUU; siRNA; sense: DNA at AGT, 2'-fluoro at CU, [invAb] at 5' end, 3' end, backbone not given here; antisense: sugars from the 5' end rrrfmfmmmfmfmmffmfmmm, backbone not given here) [Site 1384] | 82.65 | 0.80 | −21.6 | 103.38 |  |  |
| B GGcAGccAGuGGAGccuGu TTB / ACAGGcuccAcuGGcuGccUU (sense GGCAGCCAGUGGAGCCUGUTT; antisense ACAGGCUCCACUGGCUGCCUU; siRNA; sense: DNA at AGT, 2'-fluoro at CU, [invAb] at 5' end, 3' end, backbone not given here; antisense: sugars from the 5' end rrrmmffffmffmmffmffmm, backbone not given here) [Site 1753] | 84.05 | 0.66 | 0.6 | 128.19 |  |  |
